Source: US7626044B2, “Triptolide derivatives and their uses” (priority 2002, dated 2009)
In brackets after ≈: the same amount, converted by molar mass. Several values for one entry are separate records, joined by “and”; a condition that tells them apart may be missing. Equal values may be shown once.

What was measured:
[1] = test system: splenocytes (C57BL/6 responder, Balb/c stimulator); assay: MLR response of C57BL/6 against Balb/c; type: cell-based, mouse
Procedure: C57BL/6 and Balb/c mice were sacrificed by cervical dislocation, and spleens were collected under sterile conditions then teased through a nylon mesh. Erythrocytes were lysed. Cells were washed and resuspended at 6×10^6/ml in RPMI-1640 media with 10% FBS.
Splenocytes from responder (C57BL/6) were mixed with stimulator (Balb/c), which was pretreated with ^60Co Gamma Ray irradiation (3000 rads).
Stimulator and responder cells were cultured in a 200 μl volume in 96-well plate in the presence of drugs or medium, at 37° C., 5% CO2 in a humidified incubator, for 3, 4, and 5 days, respectively. In the last 8 h of incubation, cells were treated with 25 μl (3.8×10^10 Bq) of [^3H]Thymidine.
(§1) At the end of incubation, pulsed cells were harvested on a glass filter using a cell harvester ([…]96®, TOMTEC) and allowed to dry. Incorporation of radioactive thymidine was determined by using liquid Scintillation and Luminescence Counters (MicroBeta Trilux®, PerkinElmer).

[2] = test system: Sac-stimulated lymphocytes; assay: Cytokine production from Sac-stimulated lymphocytes (ELISA); type: cell-based, mouse; details: for IFN-γ production by lymphocytes stimulated with Sac, Mean Value: without drug 1302.6; for IL-12 production by lymphocytes stimulated with Sac: without drug 980; for IL-6 production by lymphocytes stimulated with Sac: without drug 1528; for IL-10 production by lymphocytes stimulated with Sac: without drug 2306; for TNF-α production by lymphocytes stimulated with Sac: without drug 4062
Procedure: (§2) Mice were sacrificed by cervical dislocation, and spleens were collected under sterile conditions then teased through a nylon mesh. Erythrocytes were lysed. Cells were washed and resuspended at 5×10^6/ml in RPMI-1640 media with 10% FBS.
(§3) 1 ml of spleen cells were treated with or without ConA (5 μg/ml) or Sac (1:10000) and in the presence or absence of drugs in a final volume of 2 ml.
(§4) After 24 h culture at 37° C., 5% CO2 in a humidified incubator, cell-free supernatant was collected and frozen at −20° C. for ELISA.
TMB was taken as the enzyme substrate. The absorbance was measured at 450/570 nm by BioRad microplate reader. […]

lymphocyte = assay: MTT cytotoxic assay; type: cell-based, mouse; details: mouse spleen cells, 48 hours, MTT
Procedure: Mice were sacrificed by cervical dislocation, and spleens were collected under sterile conditions then teased through a nylon mesh. Erythrocytes were lysed. Cells were washed and resuspended at 5×10^6/ml in RPMI-1640 media supplemented with 10% FBS.
For one 96 well plate assay, 90 μl of cells, 45 μl of sample and 45 μl of RPMI-1640 media with 10% FBS were added into each well with the final volume 180 μl. The negative control wells (containing 90 μl of RPMI-1640 media with 10% FBS and 90 pt of cells), blank control (180 μl of RPMI-1640 media with 10% FBS) were also performed. Incubate plate for 48 hours at 37° C., 5% CO2 in a humidified incubator. 18 μl of MTT solution (5 mg/ml) was added for 6-7 h.
90 μl of MTT lysis solution was added to each well followed by a further incubation at 37° C. for 6-7 h. And the absorbance was measured at 570 nm using a plate reader.

[3] = test system: MKN-28 (human gastric cancer); assay: Tumor cell proliferation, MKN-28; type: cell-based; details: read-out: Inhibitory effect on tumor cell proliferation IC50
[4] = test system: ConA-stimulated lymphocytes; assay: IL-2 production from ConA-stimulated lymphocytes (ELISA); type: cell-based, mouse; details: without drug 3724.4
Procedure: as §2, §3, §4
IL-2, IL-12p40, IL-10, and IFN-γ levels were determined by Enzyme Linked Immuno Sorbance Assay (ELISA). TMB was taken as the enzyme substrate. The absorbance was measured at 450/570 nm by BioRad microplate reader. The amount of cytokines in sample supernatants were calculated based on standard curve using standard murine cytokines (rIL-2, rIL-12, rIL-10, and rIFN-γ).

[5] = test system: HL-60 (human myeloblastic); assay: Tumor cell proliferation, HL-60; type: cell-based; details: read-out: Inhibitory effect on tumor cell proliferation IC50
T lymphocyte = assay: ConA induced T-lymphocyte proliferation ([3H]thymidine); type: cell-based, mouse
Procedure: Mice were sacrificed by cervical dislocation, and spleens were collected under sterile conditions then teased through a nylon mesh. Erythrocytes were lysed. Cells were washed and resuspended at 5×10^6/ml in RPMI-1640 media containing 10% FBS. For one 96 well plate assay, 100 pt of cells, 50 μl of sample and 50 μl of ConA/LPS were added into each well with the final volume 200 μl. The control wells were set up with 50 μl of RPMI-1640 media instead of ConA/LPS.
Plates were incubated for 48 h (ConA) or 60 h (LPS), respectively, at 37° C., 5% CO2 in a humidified incubator. In the last 8 h of incubation, 25 μl (1.9×10^10 Bq) of [^3H]thymidine was added. After plates were incubated for 48 h, the plates (ConA) were stored at −20° C., then after another 12 h, the plates (LPS) were stored at −20° C.
as §1

[6] = test system: BEL-7402 (human hepatic carcinoma cell); assay: Tumor cell proliferation, BEL-7402; type: cell-based; details: read-out: Inhibitory effect on tumor cell proliferation IC50
[7] = test system: A-549 (human lung carcinoma); assay: Tumor cell proliferation, A-549; type: cell-based; details: read-out: Inhibitory effect on tumor cell proliferation IC50
[8] = test system: MCF-7 (human breast cancer cell); assay: Tumor cell proliferation, MCF-7; type: cell-based; details: read-out: Inhibitory effect on tumor cell proliferation IC50
[9] = test system: P-388 (murine lymphoma cell); assay: Tumor cell proliferation, P-388; type: cell-based; details: read-out: Inhibitory effect on tumor cell proliferation IC50
[10] = test system: SGC-7901 (human gastric adenocarcinoma cell); assay: Tumor cell proliferation, SGC-7901; type: cell-based; details: read-out: Inhibitory effect on tumor cell proliferation IC50

CC(C)[C@]12O[C@H]1[C@@H]1O[C@]13[C@]1(O[C@H]1C[C@@]1(O)C4=C(CC[C@]31C)C(=O)OC4)[C@@H]2O [LLDT-8, (5R)-5-hydroxytriptolide]
ED50 (MLR response) ([1]; C57BL/6 against Balb/c): 0.0006 mg/L (≈ 1.59 nM)
EC50 ([1]; C57BL/6 against Balb/c, read-out: ED50 (MLR response)): 0.0016 µM
potency higher than CsA (MLR) ([1]; compared with CsA): about 2.5 fold
IFN-γ production by lymphocytes stimulated with Sac, Mean Value ([2]; 0.01 nM): 809.7 pg/mL
IFN-γ production by lymphocytes stimulated with Sac, Mean Value ([2]; 0.1 nM): 850.5 pg/mL
IL-12 production by lymphocytes stimulated with Sac ([2]; 0.3 nM): 917 pg/mL
IL-6 production by lymphocytes stimulated with Sac ([2]; 0.3 nM): 1585 pg/mL
IL-10 production by lymphocytes stimulated with Sac ([2]; 0.3 nM): 2866 pg/mL
TNF-α production by lymphocytes stimulated with Sac ([2]; 0.3 nM): 4686 pg/mL
IFN-γ production by lymphocytes stimulated with Sac, Mean Value ([2]; 1 nM): 810.3 pg/mL
IL-12 production by lymphocytes stimulated with Sac ([2]; 3 nM): 939 pg/mL
IL-6 production by lymphocytes stimulated with Sac ([2]; 3 nM): 1403 pg/mL
IL-10 production by lymphocytes stimulated with Sac ([2]; 3 nM): 2816 pg/mL
TNF-α production by lymphocytes stimulated with Sac ([2]; 3 nM): 3899 pg/mL
IFN-γ production by lymphocytes stimulated with Sac, Mean Value ([2]; 10 nM): 465.3 pg/mL
IL-12 production by lymphocytes stimulated with Sac ([2]; 30 nM): 602 pg/mL
IL-6 production by lymphocytes stimulated with Sac ([2]; 30 nM): 989 pg/mL
IL-10 production by lymphocytes stimulated with Sac ([2]; 30 nM): 3262 pg/mL
TNF-α production by lymphocytes stimulated with Sac ([2]; 30 nM): 3649 pg/mL
IFN-γ production by lymphocytes stimulated with Sac, Mean Value ([2]; 100 nM): 227.4 pg/mL
IC50 (concentration required to reduce the viability of cells by 50%) (lymphocyte): 0.0782 mg/L
IC50 (lymphocyte; read-out: IC50 (concentration required to reduce the viability of cells by 50%)): 0.208 µM and 0.2 µM
IC50 [3]: 0.39 µM
IL-2 production by lymphocytes stimulated with ConA, Mean Value ([4]; 0.3 nM): 3857.2 pg/mL
IL-2 production by lymphocytes stimulated with ConA, Mean Value ([4]; 3 nM): 3494.2 pg/mL
IL-2 production by lymphocytes stimulated with ConA, Mean Value ([4]; 30 nM): 2872.7 pg/mL
IC50 [5]: 0.081 µM
ED50 for inhibiting T lymphocyte proliferation induced by ConA (T lymphocyte; 48 h): 0.05812 mg/L
EC50 (T lymphocyte; 48 h, read-out: ED50 for inhibiting T lymphocyte proliferation induced by ConA): 0.155 µM
inhibitory activity weaker than CsA (T lymphocyte proliferation) (T lymphocyte; compared with CsA): about 5.4 fold
IC50 [6]: 0.085 µM
IC50 [7]: 0.032 µM
IC50 [8]: 0.35 µM
IC50 [9]: 0.08 µM
IC50 [10]: 0.043 µM
